Results from ChEMBL document CHEMBL3301361, “Experimental in vitro DMPK and physicochemical data on a set of publicly disclosed compounds”.
≈ marks a conversion by molar mass, not a printed value.

How the values were obtained:
in vitro [1] = settings: hepatocytes
in vitro [2] = settings: Dunkin Hartley, guinea pig, plasma
in vitro [3] = settings: SD, HW or BN, rat, plasma
physchem [4] = settings: octan-1-ol/water
in vitro [5] = settings: human
in vitro [6] = settings: human, hepatocytes
in vitro [7] = settings: mouse, plasma
in vitro [8] = settings: Beagle, dog, plasma
in vitro [9] = settings: human, plasma
physchem [10] = settings: pH 7.4 buffer
physchem [11] = assay: physchem
physchem [12] = assay: physchem; remark: listed apart in the source

| hepatocyte CLint (in vitro [1]) | fraction unbound at 5 h (in vitro [2]) | fraction unbound at 5 h (in vitro [3]) | logD (physchem [4]; pH 7.4, LogD7.4) | fraction unbound at 5 h (in vitro [7]) | fraction unbound at 5 h (in vitro [8]) | fraction unbound at 5 h (in vitro [9]; PPB) | SMILES | further results |
| --- | --- | --- | --- | --- | --- | --- | --- | --- |
| < 3 µL/min/1e6 cells | 0.186 |  | -0.03 |  |  |  | O=c1[nH]c2c(O)ccc([C@@H](O)CNCCCOCCNCCc3cccc(Cl)c3)c2s1 | microsomal CLint (in vitro [5]; liver microsomes): < 3 µL/min/mg |
|  | 0.0437 | 0.0532 |  |  |  |  | Cc1ccc2c(OCCN3CCC(Cc4cccc(NS(C)(=O)=O)c4)CC3)cccc2n1 |  |
|  |  |  |  | 0.002 | 0.002 | 0.0011 | CC(C)C[C@H](CO)Nc1nc(S[C@@H](C)c2ccccc2F)nc2nc(N)sc12 | hepatocyte CLint (in vitro [6]): 30.9 µL/min/1e6 cells |
| 91 µL/min/1e6 cells | 0.101 | 0.0784 | 2.61 |  |  | 0.0556 | O=c1[nH]c2c(O)ccc(CCNCCS(=O)(=O)CCCOCCc3ccccc3)c2s1 [SIBENADET] | microsomal CLint (in vitro [5]; microsomes): 111 µL/min/mg |
|  |  | 0.002 | 0.99 | 0.0191 | 0.0124 | 0.0013 | COc1nc(Br)cnc1NS(=O)(=O)c1ccc(Cl)s1 | solubility thermodynamic (physchem [10]): 891 µM (≈ 343 µg/mL); pKa (physchem [11]): 4.1 |
| 105 µL/min/1e6 cells |  | 0.0008 | 2.63 | 0.0016 |  | 0.148 | CCOC(=O)C1=C(C)NC(C)=C(C(C)=O)[C@H]1c1cccc2c(=O)cc(C)oc12 | hepatocyte CLint (in vitro [6]): 45.7 µL/min/1e6 cells; microsomal CLint (in vitro [5]; liver microsomes): > 150 µL/min/mg; pKa (physchem [12]): 2.22 |
|  | 0.299 | 0.314 |  |  |  | 0.249 | N=C(NCCCCc1ccc(OCC(O)CO)cc1)NC(=O)c1nc(Cl)c(N)nc1N (stereo not drawn) [552-02 FREE BASE] |  |
|  |  | 0.0011 |  | 0.0013 | 0.0006 | 0.0014 | O=C(CN1CCN(Cc2ccn(-c3ccc(C(F)(F)F)cn3)c2)CC1)NC(c1ccc(F)cc1)c1ccc(F)cc1 |  |
|  |  | 0.04 |  | 0.0079 | 0.0066 | 0.0335 | CN(C)CCC1CCN(c2cc(C(=O)NC[C@H]3CC[C@H](CNC(=O)OC(C)(C)C)CC3)c3ccccc3n2)CC1 |  |
|  | 0.0006 | 0.0044 |  |  |  | 0.0041 | C[C@@H](NC(=O)Cc1ccc(C2CC2)cc1)c1ccc(OCC(F)(F)F)cn1 |  |
| 7.08 µL/min/1e6 cells |  | 0.101 | 2.9 | 0.0477 | 0.0544 | 0.11 | C[C@H](c1nc2ncccc2c(=O)n1-c1ccc(Cl)cc1)N(CC1CCS(=O)(=O)CC1)C(=O)Cc1ccc(C(F)(F)F)c(F)c1 | microsomal CLint (in vitro [5]; microsomes): 5.25 µL/min/mg |
| 107 µL/min/1e6 cells | 0.11 |  |  |  |  | 0.0606 | CCCN(CCNCCc1ccc(O)c2[nH]c(=O)sc12)C(=O)CCOCCc1ccccc1 | microsomal CLint (in vitro [5]; liver microsomes): > 150 µL/min/mg |
|  |  | 0.009 |  | 0.0358 | 0.11 | 0.0358 | C[C@H](Nc1ncc(Cl)c(Nc2cc(C3CC3)[nH]n2)n1)c1ccc(F)cn1 |  |
|  |  | 0.0012 | 2.23 | 0.0027 |  | 0.0012 | COc1ccc(Cl)cc1C(=O)NCCc1ccc(S(=O)(=O)NC(=O)NC2CCCCC2)cc1 [GLYBURIDE] | hepatocyte CLint (in vitro [6]): 14.4 µL/min/1e6 cells; solubility thermodynamic (physchem [10]): 10.5 µM (≈ 5.19 µg/mL); pKa (physchem [11]): 3.76; microsomal CLint (in vitro [5]; liver microsomes): 22 µL/min/mg |
|  |  | 0.119 | 2 | 0.137 | 0.16 | 0.17 | O=c1cc(OCc2ccccc2)ccn1-c1ccc2c(cnn2CCN2CCCC2)c1 |  |
|  | 0.216 | 0.154 | 0.91 |  |  | 0.137 | COc1cccc(CNCc2cccc(CCNC[C@H](O)c3ccc(O)c4[nH]c(=O)sc34)c2)c1 | microsomal CLint (in vitro [5]; liver microsomes): 35 µL/min/mg |
|  |  | 0.0077 | 1.27 | 0.0229 | 0.0041 |  | Cc1ccc2c(c1)c(-c1ccnc3c(Cl)cccc13)c(C)n2CC(=O)O | solubility thermodynamic (physchem [10]): 1320 µM (≈ 481 µg/mL); pKa (physchem [11]): 2.9; microsomal CLint (in vitro [5]; liver microsomes): 7 µL/min/mg; pKa (physchem [12]): 4.4 |

| hepatocyte CLint (in vitro [1]) | fraction unbound at 5 h (in vitro [2]) | fraction unbound at 5 h (in vitro [3]) | logD (physchem [4]; pH 7.4, LogD7.4) | fraction unbound at 5 h (in vitro [7]) | fraction unbound at 5 h (in vitro [8]) | fraction unbound at 5 h (in vitro [9]; PPB) | SMILES | further results |
| --- | --- | --- | --- | --- | --- | --- | --- | --- |
|  | 0.0139 | 0.002 |  |  |  | 0.001 | CC(=O)Nc1nc2c(Oc3cc(-c4ccc(C(F)(F)F)cc4)ncn3)cccc2s1 [AMG-517] |  |
| 99 µL/min/1e6 cells | 0.0752 |  | 2.33 |  |  | 0.028 | CC(C)N(CCNCCc1ccc(O)c2[nH]c(=O)sc12)C(=O)CCOCCc1ccccc1 | microsomal CLint (in vitro [5]; microsomes): 60 µL/min/mg |
| 138 µL/min/1e6 cells |  |  | 1.46 | 0.36 | 0.0968 | 0.173 | COc1ccc2ncc(F)c(CCN3CCC(NCc4cc5c(cn4)OCCO5)CC3)c2n1 |  |
|  |  |  |  | 0.0736 | 0.204 | 0.112 | CC(C)Oc1cc(Nc2nc(N[C@@H](C)c3ncc(F)cn3)ncc2Cl)n[nH]1 |  |
| 22 µL/min/1e6 cells | 0.173 | 0.0801 | 2.23 |  |  | 0.0313 | O=C1COc2c(CCNCCN(C(=O)CCNCCc3ccc(Cl)c(Cl)c3)C3CCCCC3)ccc(O)c2N1 | microsomal CLint (in vitro [5]; microsomes): 38 µL/min/mg |
|  | 0.574 | 0.535 | 1.13 |  |  | 0.619 | O=C(NCC1CCCCN1)c1cc(OCC(F)(F)F)ccc1OCC(F)(F)F (stereo not drawn) [FLECAINIDE] |  |
|  |  |  | 0.8 | 0.671 | 0.629 | 0.46 | C[C@@]1(c2cc(-c3cncnc3)c(F)cc2F)CCSC(N)=N1 [LY-2811376] |  |
|  | 0.0544 | 0.0532 |  |  |  | 0.0069 | COc1cnc(-c2ccccc2C(F)(F)CNC(=O)c2ccc(COCC(F)(F)F)nc2)cn1 | solubility thermodynamic (physchem [10]): 85.1 µM (≈ 41.1 µg/mL) |
| 140 µL/min/1e6 cells | 0.276 | 0.208 |  |  |  | 0.107 | CN(CCNCCc1ccc(O)c2[nH]c(=O)sc12)C(=O)CCOCCc1ccccc1 | microsomal CLint (in vitro [5]; liver microsomes): 35 µL/min/mg |
| 29 µL/min/1e6 cells | 0.0447 | 0.0606 |  |  |  | 0.0447 | COc1ccccc1CCNCc1ccc(CCNC[C@H](O)c2ccc(O)c3[nH]c(=O)sc23)cc1 | microsomal CLint (in vitro [5]; liver microsomes): 25 µL/min/mg |
| 135 µL/min/1e6 cells | 0.103 |  | 1.92 |  |  | 0.0544 | CCN(CCNCCc1ccc(O)c2[nH]c(=O)sc12)C(=O)CCOCCc1ccccc1 | microsomal CLint (in vitro [5]; liver microsomes): 82 µL/min/mg |
|  | 0.276 | 0.0836 | 0.82 |  |  |  | COc1ccccc1CCNCc1cccc(CCNC[C@H](O)c2ccc(O)c3[nH]c(=O)sc23)c1 |  |
|  |  | 0.035 | 3.14 | 0.0418 | 0.183 | 0.0801 | C[C@H](Nc1ncc(F)c(Nc2cc(C3CC3)[nH]n2)n1)c1ccc(F)cn1 |  |
|  |  | 0.266 |  | 0.266 | 0.289 | 0.0661 | O=C(c1c2ccccc2cc2ccccc12)N1CCC(N2CCC[C@@H](C(=O)N3CCOCC3)C2)CC1 |  |
|  | 0.855 | 0.656 |  |  |  | 0.772 | CC(C)(C)NCC(O)c1ccc(O)c(CO)c1 (stereo not drawn) [ALBUTEROL] |  |
|  |  |  | 4.3 | 0.0009 | 0.0019 | 0.001 | CC(C)C[C@H](CO)Nc1nc(S[C@@H](C)c2ccccc2)nc2[nH]c(=O)sc12 |  |
|  | 0.194 |  | 0.02 |  |  | 0.285 | O=CNc1cc([C@@H](O)CNCCc2ccc(NC[C@H](O)c3ccccc3)cc2)ccc1O [MILVETEROL] | hepatocyte CLint (in vitro [6]): < 3 µL/min/1e6 cells |

| SMILES | hepatocyte CLint (in vitro [1]) | fraction unbound at 5 h (in vitro [2]) | fraction unbound at 5 h (in vitro [3]) | logD (physchem [4]; pH 7.4, LogD7.4) | fraction unbound at 5 h (in vitro [7]) | fraction unbound at 5 h (in vitro [8]) | fraction unbound at 5 h (in vitro [9]; PPB) | further results |
| --- | --- | --- | --- | --- | --- | --- | --- | --- |
| C[C@@](C(=O)O[C@H]1C[N+]2(CCc3ccccc3)CCC1CC2)(c1ccccc1)N1CCCCC1 | 76 µL/min/1e6 cells | 0.129 | 0.22 |  |  |  |  |  |
| CCc1c(C(=O)C(N)=O)c2c(OCC(=O)O)cccc2n1Cc1ccccc1 [VARESPLADIB] |  |  | 0.0768 |  | 0.22 | 0.129 |  | fraction unbound at 5 h (in vitro [9]): 0.124 |
| C[C@@](C(=O)O[C@H]1C[N+]2(CCc3ccccc3F)CCC1CC2)(c1ccccc1)N1CCCCC1 | 130 µL/min/1e6 cells | 0.194 |  |  |  |  |  |  |
| N#Cc1ccc2c(c1)N(CCN1CCC(NCc3ccc4c(n3)NC(=O)CO4)CC1)C(=O)CO2 | 8.51 µL/min/1e6 cells | 0.591 |  |  |  |  |  | logD (physchem [4]; pH 7.4): 0.23 |
| CCCN(c1cccc(S(C)(=O)=O)c1)P(=O)(c1ccccc1)c1ccccc1 |  | 0.289 | 0.186 |  |  |  |  | fraction unbound at 5 h (in vitro [9]): 0.0321 |
| C[C@@](C(=O)O[C@H]1C[N+]2(CCCc3ccc4ncsc4c3)CCC1CC2)(c1ccccc1)N1CCCCC1 | 66 µL/min/1e6 cells | 0.244 |  |  |  |  |  |  |
| Cc1cc(CCC[N+]23CCC(CC2)[C@@H](OC(=O)[C@](C)(c2ccccc2)N2CCCCC2)C3)ccn1 | 36.1 µL/min/1e6 cells | 0.529 |  |  |  |  |  |  |
| C[C@@](C(=O)O[C@H]1C[N+]2(CC(=O)Nc3ccccc3)CCC1CC2)(c1ccccc1)N1CCCCC1 | 64 µL/min/1e6 cells | 0.0499 |  |  |  |  |  |  |
| CCCN(c1cncnc1)P(=O)(c1ccccc1)c1ccccc1 |  | 0.529 |  |  |  |  |  |  |
| CN(C)C(=O)C(CCN1CCC(O)(c2ccc(Cl)cc2)CC1)(c1ccccc1)c1ccccc1 [LOPERAMIDE] |  |  | 0.0544 |  | 0.0358 |  |  | logD (physchem [4]; pH 7.4): 3.47; pKa (physchem [12]): 9.14; fraction unbound at 5 h (in vitro [9]): 0.0736 |
| COCCN(c1cccnc1)P(=O)(c1ccccc1)c1ccccc1 |  | 0.58 | 0.376 |  |  |  |  | fraction unbound at 5 h (in vitro [9]): 0.0872 |
